Measured values: patent publication US20060293249A1, “Porphyrin derivatives” (PhotoBiotics Limited, priority 2002, published 2006)
Like-named read-outs stand apart in the source and are kept apart here.

How the values were obtained:
[1] = Solubility remark in synthesis; format: physicochemical
[2] = Determination of singlet oxygen quantum yields (phosphorescence at 1270 nm following laser excitation, relative to reference standard); format: physicochemical
Experimental: Air equilibrated solutions of the sensitisers were optically matched at the laser excitation wavelength along with that of the reference standard whose singlet oxygen quantum yield is known. Singlet oxygen generation is detected by its phosphorescence at 1270 nm following laser excitation. At each laser intensity the recorded phosphorescence trace was obtained by signal averaging 10 single shots. A linear regression between the signal amplitude and the laser intensity is carried out with the aim of calculating the slope of the straight line and since the gradient is proportional to the singlet oxygen quantum yield, by comparison with the gradient obtained for the standard, the singlet oxygen quantum yield for the sample can calculated using: φ=φstandard×(slopesample/slopestandard)×(absorptionsample/absorptionstandard)
This is a comparative method where the value obtained for φ is relative to that of a known standard. The quality of the results obtained are heavily dependent on the quality of the standard, which should be freshly prepared before measurements.

[3] = in toluene; known standard value; cited from earlier work
[4] = compounds known in the art; cited from earlier work

5-Nonane-10,15,20-triiodo-porphyrin [[18]]
solubility [1]: limited solubility

Zinc5-[5-(2′-(trimethylsilyl)ethyl-4-hydroxybenzoate)pentane]-10,15,20-tri-2-ethynylpyridine-porphyrin [Compound [11]]
singlet oxygen quantum yield [2]: around 0.81
singlet oxygen quantum yield ([2]; in toluene): 0.8109

C[Si](C)(C)CCOC(=O)c1ccc(OCCCCCc2c3nc(c(I)c4ccc([nH]4)c(I)c4nc(c(I)c5ccc2[nH]5)C=C4)C=C3)cc1 [[9], 5-[5-(2′-(trimethylsilyl)ethyl-4-hydroxybenzoate)pentane]-10,15,20-triiodo-porphyrin]
solubility [1]: limited solubility

C=Cc1c(C)c2cc3nc(c4c5[n-]c(cc6nc(cc1[n-]2)C(C)=C6CC)c(C)c5C(=O)[C@@H]4C(=O)OC)[C@@H](CCC(=O)OC/C=C(\C)CCC[C@H](C)CCC[C@H](C)CCCC(C)C)[C@@H]3C.[Mg+2] [chlorophyll A]
singlet oxygen quantum yield of reference standard [3]: 0.6

disulfonated aluminium phthalocyanine [AIPCS2]
singlet oxygen quantum yield [4]: 0.3

5-Pentane-10,15,20-triiodo-porphyrin [[30]]
solubility [1]: limited solubility
